For test [1], the target named is T1, human sodium channels Nav 1.8 (Homo sapiens, UniProt Q9Y5Y9).
T1 construct: expressed in transfected cells
Put plainly: Automated whole-cell voltage-clamp (ScreenPatch 384P) sodium current block, Nav 1.8. It is filed as cell-based. The following applies: CHO cells stably expressing human Nav 1.8; inactivation step -40 mV for 8 seconds, test step 10 mV (TP1A); exposure at least five minutes; room temperature; mean if two or more assays; read-out: Nav1.8 IC50. On the procedure:
(§1) Biological assays were performed on Chinese hamster ovary (CHO) cells that express human sodium channels Nav 1.8 or Nav 1.7 in a stable manner.
(§2) The experimental protocol voltage-clamp using the whole cell configuration was established on the automated ScreenPatch® 384P platform (SP384PE, Nanion Technologies, Livingston, NJ) and the results were recorded with a Nanion 384-well Patch Clamp chip (NPC) (Nanion Technologies, Livingston, NJ).
(§3) Formula I compounds were diluted in eight concentrations in the extracellular solution composed of saline saline solution, buffered with HEPES (mM): NaCl, 137; KCl, 4; CaCl2, 3,8; MgCl2, 1; HEPES, 10; Glucose, 10; pH 7.4. The […], 50; CsF, 90; MgCl2, 5; EGTA, 5; HEPES, 10; pH 7.2. The duration of exposure of each compound with cells expressing Nav 1.7 or Nav 1.8 was at least five minutes and the assays were performed at room temperature.
(§4) The measurements of the sodium currents of Nav 1.8 and Nav 1.7 were obtained using the voltage protocol described below.
(§5) A holding voltage of -100 mV was established followed by an inactivation voltage step at -40 mV for 8 seconds, followed by a step of -100 mV for 20 ms, followed by a 20 ms step for 10 mV for Nav 1.8 or 0 mV for Nav 1.7 (TP1A) before returning to the holding voltage of -100 mV.
(§6) The protocol was repeated at a frequency of 0.05 Hz and the amplitude of the current was quantified throughout the recording of the TP1A phase. The variation in the amplitude of the peak current was evaluated according to the formula described below, after exposing the cells expressing the channels to each concentration of the different compounds: % Block = (1−(ITP1A,molecule/ITP1A,basal)×100%, [formula] wherein ITP1A,basal and ITP1A,molecule represent the peaks of sodium current input into TP1A before exposure to the compound and in the presence of the compound, respectively.
(§7) Data were obtained by nonlinear regression (nonlinear least squares) with XLfit for Excel (Microsoft, Redmond, WA).
(§8) The compounds were tested in at least one assay to obtain the value of CI50. For compounds that were tested in two or more assays, the results are described as the mean of the CI50 values.

Test [2] addresses T2, human sodium channels Nav 1.7 (Homo sapiens, UniProt Q15858).
T2 construct: expressed in transfected cells
Put plainly: Automated whole-cell voltage-clamp (ScreenPatch 384P) sodium current block, Nav 1.7. Type of test: cell-based. To be noted: CHO cells stably expressing human Nav 1.7; inactivation step -40 mV for 8 seconds, test step 0 mV (TP1A); exposure at least five minutes; room temperature; mean if two or more assays; read-out: Nav1.7 IC50. On the procedure: as §1, §2, §3, §4, §5, §6, §7, §8

T2 sequence (Q15858 whole entry): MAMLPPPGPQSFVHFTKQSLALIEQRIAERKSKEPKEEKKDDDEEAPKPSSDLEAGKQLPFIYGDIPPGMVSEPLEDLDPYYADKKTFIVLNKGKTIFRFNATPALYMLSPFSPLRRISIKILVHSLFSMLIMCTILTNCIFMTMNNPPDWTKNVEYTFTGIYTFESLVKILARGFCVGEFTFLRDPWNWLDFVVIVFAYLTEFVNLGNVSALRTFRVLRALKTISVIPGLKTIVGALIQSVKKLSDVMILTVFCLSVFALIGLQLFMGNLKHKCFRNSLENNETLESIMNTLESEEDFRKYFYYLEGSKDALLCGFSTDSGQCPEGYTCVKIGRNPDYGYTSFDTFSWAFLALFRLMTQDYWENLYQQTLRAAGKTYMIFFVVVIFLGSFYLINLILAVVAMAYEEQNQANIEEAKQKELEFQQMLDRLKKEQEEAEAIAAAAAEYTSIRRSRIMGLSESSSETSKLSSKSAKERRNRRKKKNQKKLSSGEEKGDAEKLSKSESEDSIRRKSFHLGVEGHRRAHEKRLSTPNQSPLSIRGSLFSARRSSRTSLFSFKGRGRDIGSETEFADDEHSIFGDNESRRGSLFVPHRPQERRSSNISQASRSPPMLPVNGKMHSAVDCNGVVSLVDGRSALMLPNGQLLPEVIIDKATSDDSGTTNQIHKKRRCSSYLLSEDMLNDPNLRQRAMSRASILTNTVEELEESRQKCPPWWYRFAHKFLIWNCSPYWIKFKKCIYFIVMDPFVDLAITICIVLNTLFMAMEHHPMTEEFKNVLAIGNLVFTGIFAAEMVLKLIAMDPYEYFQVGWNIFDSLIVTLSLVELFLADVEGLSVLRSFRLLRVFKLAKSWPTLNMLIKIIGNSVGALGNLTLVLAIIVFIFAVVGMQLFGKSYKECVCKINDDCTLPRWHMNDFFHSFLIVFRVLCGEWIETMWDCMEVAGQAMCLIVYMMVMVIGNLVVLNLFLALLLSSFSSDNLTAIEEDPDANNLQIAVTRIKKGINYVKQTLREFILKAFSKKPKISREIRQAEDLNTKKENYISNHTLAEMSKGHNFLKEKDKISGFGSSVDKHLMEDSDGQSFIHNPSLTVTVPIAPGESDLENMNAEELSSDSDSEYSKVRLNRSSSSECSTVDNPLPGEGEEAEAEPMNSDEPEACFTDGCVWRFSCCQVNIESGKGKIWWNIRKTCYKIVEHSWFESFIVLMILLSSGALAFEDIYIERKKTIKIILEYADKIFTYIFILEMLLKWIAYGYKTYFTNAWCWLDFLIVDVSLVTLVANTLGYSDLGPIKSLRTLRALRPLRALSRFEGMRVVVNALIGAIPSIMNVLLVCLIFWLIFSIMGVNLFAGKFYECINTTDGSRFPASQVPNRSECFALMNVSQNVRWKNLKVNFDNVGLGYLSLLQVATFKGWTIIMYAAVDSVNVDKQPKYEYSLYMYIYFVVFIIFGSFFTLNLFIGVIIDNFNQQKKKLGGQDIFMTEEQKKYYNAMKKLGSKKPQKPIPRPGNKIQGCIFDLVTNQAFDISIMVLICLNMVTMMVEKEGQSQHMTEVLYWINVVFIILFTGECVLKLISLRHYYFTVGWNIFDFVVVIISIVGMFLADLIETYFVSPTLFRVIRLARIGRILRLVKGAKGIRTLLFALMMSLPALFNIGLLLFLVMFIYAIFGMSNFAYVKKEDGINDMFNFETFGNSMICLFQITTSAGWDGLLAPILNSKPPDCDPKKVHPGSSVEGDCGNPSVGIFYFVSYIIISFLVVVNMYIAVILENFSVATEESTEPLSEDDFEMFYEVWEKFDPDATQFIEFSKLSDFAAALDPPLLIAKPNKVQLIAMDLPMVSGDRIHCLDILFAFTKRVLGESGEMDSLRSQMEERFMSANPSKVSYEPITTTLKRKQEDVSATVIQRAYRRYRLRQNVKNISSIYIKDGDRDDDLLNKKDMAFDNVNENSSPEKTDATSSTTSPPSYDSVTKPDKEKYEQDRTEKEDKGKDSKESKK
T1 sequence (Q9Y5Y9 whole entry): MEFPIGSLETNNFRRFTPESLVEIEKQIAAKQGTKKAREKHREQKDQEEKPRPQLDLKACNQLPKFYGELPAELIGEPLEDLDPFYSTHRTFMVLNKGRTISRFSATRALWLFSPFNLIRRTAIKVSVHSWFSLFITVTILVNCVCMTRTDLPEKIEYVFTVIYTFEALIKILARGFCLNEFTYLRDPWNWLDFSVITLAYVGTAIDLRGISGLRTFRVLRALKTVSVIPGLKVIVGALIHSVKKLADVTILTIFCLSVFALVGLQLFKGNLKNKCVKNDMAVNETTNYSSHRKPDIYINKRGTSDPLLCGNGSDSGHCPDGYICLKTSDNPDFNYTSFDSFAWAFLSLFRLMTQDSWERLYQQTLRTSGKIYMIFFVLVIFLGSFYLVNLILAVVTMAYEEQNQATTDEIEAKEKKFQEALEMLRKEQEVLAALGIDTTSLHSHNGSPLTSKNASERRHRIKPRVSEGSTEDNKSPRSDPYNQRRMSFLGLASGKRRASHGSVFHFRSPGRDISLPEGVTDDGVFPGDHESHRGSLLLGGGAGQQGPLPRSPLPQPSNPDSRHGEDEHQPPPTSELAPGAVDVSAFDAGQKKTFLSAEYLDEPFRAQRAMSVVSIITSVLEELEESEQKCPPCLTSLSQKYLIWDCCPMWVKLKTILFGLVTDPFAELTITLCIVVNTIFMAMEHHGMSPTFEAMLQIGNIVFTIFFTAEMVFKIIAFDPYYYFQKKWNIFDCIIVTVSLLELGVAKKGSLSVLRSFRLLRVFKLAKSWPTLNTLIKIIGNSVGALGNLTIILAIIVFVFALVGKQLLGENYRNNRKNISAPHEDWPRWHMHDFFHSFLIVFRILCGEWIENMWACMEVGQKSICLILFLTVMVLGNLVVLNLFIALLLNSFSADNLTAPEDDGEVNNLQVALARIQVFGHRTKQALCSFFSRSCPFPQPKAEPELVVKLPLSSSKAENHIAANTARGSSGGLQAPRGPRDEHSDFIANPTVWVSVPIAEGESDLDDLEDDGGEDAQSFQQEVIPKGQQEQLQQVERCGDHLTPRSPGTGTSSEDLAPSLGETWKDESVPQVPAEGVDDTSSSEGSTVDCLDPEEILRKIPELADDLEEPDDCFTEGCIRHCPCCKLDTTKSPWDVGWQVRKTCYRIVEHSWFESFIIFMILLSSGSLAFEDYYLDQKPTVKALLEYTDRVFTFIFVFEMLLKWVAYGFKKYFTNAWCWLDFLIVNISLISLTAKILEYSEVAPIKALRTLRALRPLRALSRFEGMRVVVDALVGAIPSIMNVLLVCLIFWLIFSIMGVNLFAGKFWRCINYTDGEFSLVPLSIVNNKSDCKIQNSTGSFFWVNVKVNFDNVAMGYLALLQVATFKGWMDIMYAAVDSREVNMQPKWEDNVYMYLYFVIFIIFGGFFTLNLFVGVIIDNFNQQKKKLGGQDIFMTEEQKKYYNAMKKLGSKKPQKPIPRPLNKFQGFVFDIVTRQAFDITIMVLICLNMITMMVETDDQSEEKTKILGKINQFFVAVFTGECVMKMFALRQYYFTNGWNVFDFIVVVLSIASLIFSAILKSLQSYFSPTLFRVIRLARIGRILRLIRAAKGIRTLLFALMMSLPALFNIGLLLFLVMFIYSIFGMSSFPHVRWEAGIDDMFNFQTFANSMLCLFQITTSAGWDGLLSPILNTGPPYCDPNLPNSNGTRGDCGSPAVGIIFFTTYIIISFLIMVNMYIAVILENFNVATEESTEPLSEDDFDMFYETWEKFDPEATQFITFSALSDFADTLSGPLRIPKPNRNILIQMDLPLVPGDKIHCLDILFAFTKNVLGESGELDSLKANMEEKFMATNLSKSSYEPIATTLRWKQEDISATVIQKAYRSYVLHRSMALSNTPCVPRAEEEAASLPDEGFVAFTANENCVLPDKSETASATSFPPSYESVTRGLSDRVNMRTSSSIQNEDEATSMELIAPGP

Usually IC50 stands for the concentration that gives 50% inhibition. Regarding `COc1ccc(F)c(CONC(=O)c2cncc(-c3ccc(O)cc3)n2)c1` [Compound 1, N-((2-fluoro-5-methoxybenzyl)oxy)-6-(4-hydroxyphenyl)pyrazine-2-carboxamide], the IC50 in test [1] and in test [2] was above 1000 nM in each case.

Regarding `COc1ccc(-c2cncc(C(=O)NOCc3cc(OC)ccc3F)n2)cc1` [Compound 2, N-((2-fluoro-5-methoxybenzyl)oxy)-6-(4-methoxyphenyl)pyrazine-2-carboxamide], the results for the IC50 in test [1] and in test [2] were below 500 nM and above 1000 nM, respectively.

Turning to `COc1ccc(F)c(CONC(=O)c2cncc(-c3ccc(OC(C)C)cc3)n2)c1` [Compound 3, N-((2-fluoro-5-methoxybenzyl)oxy)-6-(4-isopropoxyphenyl)pyrazine-2-carboxamide], the IC50 in test [1] and in test [2] was below 500 nM each time.

As to `CCOc1ccc(-c2cncc(C(=O)NOCc3ccccc3F)n2)cc1` [Compound 4, 6-(4-ethoxyphenyl)-N-((2-fluorobenzyl)oxy)pyrazine-2-carboxamide], the IC50 in test [1] was below 500 nM; in test [2], 500 to 1000 nM.

For `CCOc1ccc(-c2cncc(C(=O)NOCc3cccc(OC)c3)n2)cc1` [Compound 5, 6-(4-ethoxyphenyl)-N-((3-methoxybenzyl)oxy)pyrazine-2-carboxamide], the IC50 in test [1] was below 500 nM; in test [2] it was above 1000 nM.

With `CCOc1ccc(-c2cncc(C(=O)NOCc3ccccc3O)n2)cc1` [Compound 6, 6-(4-ethoxyphenyl)-N-((2-hydroxybenzyl)oxy)pyrazine-2-carboxamide], the IC50 in test [1] and in test [2] was above 1000 nM in each case.

As for `CCOc1ccc(-c2cncc(C(=O)NOCc3cccc(O)c3)n2)cc1` [Compound 7, 6-(4-ethoxyphenyl)-N-((3-hydroxybenzyl)oxy)pyrazine-2-carboxamide], the IC50 in test [1] and in test [2] was above 1000 nM each time.

`CCOc1ccc(-c2cncc(C(=O)NOCc3cncc(OC)c3)n2)cc1` [Compound 8, 6-(4-ethoxyphenyl)-N-((5-methoxypyridine-3-yl)methoxy)pyrazine-2-carboxamide]: the half-inhibitory concentration (IC50) in test [1] and in test [2] was above 1000 nM throughout.

Regarding `CCOc1ccc(-c2cncc(C(=O)NOCc3cc(OC)ccc3F)n2)cc1` [Compound 9, 6-(4-ethoxyphenyl)-N-((2-fluoro-5-methoxybenzyl)oxy)pyrazine-2-carboxamide], the IC50 was below 500 nM in test [1] and above 1000 nM in test [2].

Regarding `CCOc1ccc(-c2cncc(C(=O)NOCc3cc(OC(C)C)ccc3F)n2)cc1` [Compound 10, 6-(4-ethoxyphenyl)-N-((2-fluoro-5-isopropoxybenzyl)oxy)pyrazine-2-carboxamide], the IC50 in test [1] is below 500 nM; in test [2], above 1000 nM.

Regarding `CCOc1ccc(-c2cncc(C(=O)NOCc3cc(OC)ccc3Cl)n2)cc1` [Compound 11, N-((2-chloro-5-methoxybenzyl)oxy)-6-(4-ethoxyphenyl)pyrazine-2-carboxamide], the results for the IC50 in test [1] and in test [2] were below 500 nM and 500 to 1000 nM, respectively.

For the molecule `CCOc1ccc(-c2cncc(C(=O)NOCc3cc(OC)cnc3F)n2)cc1` [Compound 12, 6-(4-ethoxyphenyl)-N-((2-fluoro-5-methoxypyridine-3-yl)methoxy)pyrazine-2-carboxamide], the IC50 in test [1] is below 500 nM; in test [2], above 1000 nM.

As for `CCOc1ccc(-c2cncc(C(=O)NOCc3cc(OC)ncc3F)n2)cc1` [Compound 13, 6-(4-ethoxyphenyl)-N-((5-fluoro-2-methoxypyridine-4-yl)methoxy)pyrazine-2-carboxamide], the IC50 in test [1] is below 500 nM; in test [2], above 1000 nM.

Turning to `CCOc1ccc(-c2cncc(C(=O)NOCc3cc(O)ccc3F)n2)cc1` [Compound 14, 6-(4-ethoxyphenyl)-N-((2-fluoro-5-hydroxybenzyl)oxy)pyrazine-2-carboxamide], the results for the IC50 in test [1] and in test [2] were below 500 nM and above 1000 nM, respectively.

With `CCOc1ccc(-c2cncc(C(=O)NOCc3cc(OC)ccc3C3CC3)n2)cc1` [Compound 15, N-((2-cyclopropyl-5-methoxybenzyl)oxy)-6-(4-ethoxyphenyl)pyrazine-2-carboxamide], the IC50 in test [1] and in test [2] was below 500 nM throughout.

On to `CCOc1ccc(-c2cncc(C(=O)NOCc3cc(OC)ccc3O)n2)cc1` [Compound 16, 6-(4-ethoxyphenyl)-N-((2-hydroxy-5-methoxybenzyl)oxy)pyrazine-2-carboxamide], for which the IC50 in test [1] and in test [2] was above 1000 nM each time.

For the molecule `CCOc1ccc(-c2cncc(C(=O)NOCc3cc(C(C)N)ccc3F)n2)cc1` (centres unmarked) [Compound 17, N-((5-(1-aminoethyl)-2-fluorobenzyl)oxy)-6-(4-ethoxyphenyl)pyrazine-2-carboxamide], the IC50 in test [1] is below 500 nM; in test [2] it was above 1000 nM.

With `CCOc1ccc(-c2cncc(C(=O)NOCc3cc(OC)cnc3C)n2)cc1` [Compound 18, 6-(4-ethoxyphenyl)-N-((5-methoxy-2-methylpyridine-3-yl)methoxy)pyrazine-2-carboxamide], the IC50 in test [1] was below 500 nM; in test [2], 500 to 1000 nM.

In the case of `CCOc1ccc(-c2cncc(C(=O)NOCc3cc(OC)ccc3C)n2)cc1` [Compound 19, 6-(4-ethoxyphenyl)-N-((5-methoxy-2-methylbenzyl)oxy)pyrazine-2-carboxamide], the IC50 in test [1] and in test [2] was above 1000 nM in each case.

In the case of `CCOc1ccc(-c2cncc(C(=O)NOCc3cc(OC)cc(OC)c3)n2)cc1` [Compound 20, N-((3,5-dimethoxybenzyl)oxy)-6-(4-ethoxyphenyl)pyrazine-2-carboxamide], the IC50 in test [1] and in test [2] was above 1000 nM throughout.

With `CCOc1ccc(-c2cncc(C(=O)NOCc3cc(C)cc(C)c3)n2)cc1` [Compound 21, N-((3,5-dimethylbenzyl)oxy)-6-(4-ethoxyphenyl)pyrazine-2-carboxamide], the IC50 in test [1] and in test [2] was above 1000 nM throughout.

For the molecule `COc1ccc(F)c(CONC(=O)c2cncc(-c3ccc(OC4CNC4)cc3)n2)c1` [Compound 22, 6-(4-(azetidin-3-yloxy)phenyl)-N-((2-fluoro-5-methoxybenzyl)oxy)pyrazine-2-carboxamide], the IC50 in test [1] and in test [2] was above 1000 nM throughout.

`COc1ccc(F)c(CONC(=O)c2cncc(-c3ccc(OCC4CNC4)cc3)n2)c1` [Compound 23, 6-(4-(azetidine-3-ylmethoxy)phenyl)-N-((2-fluoro-5-methoxybenzyl)oxy)pyrazine-2-carboxamide]: the IC50 in test [1] and in test [2] was above 1000 nM in each case.

On to `COc1ccc(F)c(CONC(=O)c2cncc(-c3ccc(OCCC4CNC4)cc3)n2)c1` [Compound 24, 6-(4-(2-(azetidine-3-yl)ethoxy)phenyl)-N-((2-fluoro-5-methoxybenzyl)oxy)pyrazine-2-carboxamide], for which the IC50 in test [1] and in test [2] was above 1000 nM in each case.

For the molecule `COc1ccc(F)c(CONC(=O)c2cncc(-c3ccc(OC4CN(C)C4)cc3)n2)c1` [Compound 25, N-((2-fluoro-5-methoxybenzyl)oxy)-6-(4-((1-methylazetidine-3-yl)oxy)phenyl)pyrazine-2-carboxamide], the IC50 is 500 to 1000 nM in test [1] and above 1000 nM in test [2].

As to `COc1ccc(F)c(CONC(=O)c2cncc(-c3ccc(OCC4CN(C)C4)cc3)n2)c1` [Compound 26, N-((2-fluoro-5-methoxybenzyl)oxy)-6-(4-((1-methylazetidine-3-yl)methoxy)phenyl)pyrazine-2-carboxamide], the IC50 in test [1] is below 500 nM; in test [2], 500 to 1000 nM.

With `COc1ccc(F)c(CONC(=O)c2cncc(-c3ccc(OCCC4CN(C)C4)cc3)n2)c1` [Compound 27, N-((2-fluoro-5-methoxybenzyl)oxy)-6-(4-(2-(1-methylazetidine-3-yl)ethoxy)phenyl)pyrazine-2-carboxamide], the values for the IC50 in test [1] and in test [2] were below 500 nM and above 1000 nM, respectively.

Turning to `COc1cncc(CONC(=O)c2cncc(-c3ccc(OC(F)F)cc3)n2)c1` [Compound 28, 6-(4-(difluoromethoxy)phenyl)-N-((5-methoxypyridine-3-yl)methoxy)pyrazine-2-carboxamide], the IC50 in test [1] is below 500 nM; in test [2] it was above 1000 nM.

The values above are taken from patent EP4660184A1 (Eurofarma Laboratórios S.A., priority 2023, dated 2024).
